Literature values in PMC7503629, “Synthesis and Biological Studies on Dinuclear Gold(I) Complexes with Di-(N-Heterocyclic Carbene) Ligands Functionalized with Carbohydrates” (Molecules, 2020).

Parameters: method as in doi:10.1002/ejic.201700768
Details: attributed to low mitochondrial penetration; cited from earlier work

Substance: [Au(magi)Cl] (magi = 1-methyl-3-(2,3,4,6-tetra-O-acetyl-β-D-glucopyranosyl)imidazole-2-ylidene)
- antiproliferative activity (in words): inertness
